Assays:
[1] = Biodistribution in Wistar rat assessed as uptake ratio of cortex to cerebellum at 50 to 100 microCi measured after 2 hrs; format: ADME, organism-based; settings: in vivo, dose 50-100 microCi
[2] = Drug uptake ratio in Sprague-Dawley rat brain cingulate cortex to cerebellum measured after 20 to 30 mins by camera ClearPET LYSO/LuYAP Phoswich-scanner analysis; format: ADME, tissue-based; settings: time 20-30 min
[3] = molecular target: T1, 5-hydroxytryptamine receptor 1A (Homo sapiens, UniProt P08908)
T1 sequence (P08908 whole entry): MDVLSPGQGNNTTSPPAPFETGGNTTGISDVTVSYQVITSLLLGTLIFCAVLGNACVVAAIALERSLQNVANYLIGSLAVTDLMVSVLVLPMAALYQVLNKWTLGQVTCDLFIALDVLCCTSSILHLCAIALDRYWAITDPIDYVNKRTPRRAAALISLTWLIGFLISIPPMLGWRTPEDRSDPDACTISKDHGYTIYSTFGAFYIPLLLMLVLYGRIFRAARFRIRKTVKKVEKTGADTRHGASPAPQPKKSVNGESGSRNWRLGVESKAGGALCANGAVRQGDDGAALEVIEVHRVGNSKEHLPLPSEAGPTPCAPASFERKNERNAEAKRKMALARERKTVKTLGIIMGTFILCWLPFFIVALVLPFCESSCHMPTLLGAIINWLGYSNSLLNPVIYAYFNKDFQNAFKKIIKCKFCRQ

[4] = Drug uptake ratio in cat brain dorsal raphe nucleus to cerebellum measured after 20 to 30 mins by camera ClearPET LYSO/LuYAP Phoswich-scanner analysis; format: ADME, tissue-based, Felis catus; settings: time 20-30 min
[5] = Ratio of drug uptake in monkey hippocampus to cerebellum; format: ADME, tissue-based, Macaca mulatta; settings: rhesus monkey, in vivo
[6] = Ratio of drug uptake in monkey anterior cingulate cortex to cerebellum; format: ADME, tissue-based, Macaca mulatta; settings: rhesus monkey, in vivo
D(2) dopamine receptor [7] = molecular target: T2, D(2) dopamine receptor (Rattus norvegicus, UniProt P61169); experiment: Displacement of [3H]-spiperone from rat frontal cortex membrane homogenate D2 receptor; format: cell membranes
T2 sequence (P61169 whole entry): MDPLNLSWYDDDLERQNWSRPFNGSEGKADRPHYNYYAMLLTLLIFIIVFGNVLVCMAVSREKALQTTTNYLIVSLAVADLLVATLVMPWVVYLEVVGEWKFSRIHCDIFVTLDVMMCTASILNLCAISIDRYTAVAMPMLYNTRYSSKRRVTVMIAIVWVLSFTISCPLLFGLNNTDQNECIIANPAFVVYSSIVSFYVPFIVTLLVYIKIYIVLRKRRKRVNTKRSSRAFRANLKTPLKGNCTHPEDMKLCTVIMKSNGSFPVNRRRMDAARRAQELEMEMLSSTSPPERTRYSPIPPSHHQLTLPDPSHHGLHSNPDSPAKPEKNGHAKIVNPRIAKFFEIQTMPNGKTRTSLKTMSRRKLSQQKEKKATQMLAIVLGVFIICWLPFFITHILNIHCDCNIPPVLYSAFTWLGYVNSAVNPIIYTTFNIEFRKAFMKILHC

[8] = molecular target: T3, Alpha-1A adrenergic receptor (Rattus norvegicus, UniProt P43140); experiment: Displacement of [3H]-prazosin from rat whole cortex membrane homogenate alpha 1 adrenergic receptor; format: cell membranes
T3 sequence (P43140 whole entry): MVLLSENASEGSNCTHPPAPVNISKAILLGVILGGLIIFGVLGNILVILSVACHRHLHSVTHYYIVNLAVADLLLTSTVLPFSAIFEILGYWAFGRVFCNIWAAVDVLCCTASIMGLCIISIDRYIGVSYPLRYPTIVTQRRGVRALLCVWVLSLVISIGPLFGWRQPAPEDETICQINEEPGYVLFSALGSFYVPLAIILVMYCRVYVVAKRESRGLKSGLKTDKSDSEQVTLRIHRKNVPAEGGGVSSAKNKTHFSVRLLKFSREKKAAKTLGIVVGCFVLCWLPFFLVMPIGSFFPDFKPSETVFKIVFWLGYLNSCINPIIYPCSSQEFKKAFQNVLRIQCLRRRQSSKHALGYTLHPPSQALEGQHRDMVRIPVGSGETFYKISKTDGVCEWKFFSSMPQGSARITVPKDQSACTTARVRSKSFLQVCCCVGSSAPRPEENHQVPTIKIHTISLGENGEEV

[9] = molecular target: T4, Alpha-1A adrenergic receptor (Homo sapiens, UniProt P35348); experiment: Binding affinity to human alpha 1A adrenergic receptor expressed in CHO cells assessed as inhibition constant; format: cell-based
T4 sequence (P35348 whole entry): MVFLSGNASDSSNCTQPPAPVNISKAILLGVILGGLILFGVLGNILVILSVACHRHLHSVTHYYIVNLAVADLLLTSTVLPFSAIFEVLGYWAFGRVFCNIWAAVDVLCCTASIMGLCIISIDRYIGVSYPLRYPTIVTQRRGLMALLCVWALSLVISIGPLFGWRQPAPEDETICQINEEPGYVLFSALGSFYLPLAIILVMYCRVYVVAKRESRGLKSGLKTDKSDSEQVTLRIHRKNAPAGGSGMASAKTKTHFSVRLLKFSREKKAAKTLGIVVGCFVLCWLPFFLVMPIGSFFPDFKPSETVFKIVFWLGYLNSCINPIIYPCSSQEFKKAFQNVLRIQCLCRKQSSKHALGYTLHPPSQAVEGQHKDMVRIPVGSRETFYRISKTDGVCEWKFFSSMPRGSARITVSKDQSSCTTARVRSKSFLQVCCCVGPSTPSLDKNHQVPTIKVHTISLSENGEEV

D(4) dopamine receptor = D(4) dopamine receptor (Homo sapiens, UniProt P21917); experiment: Binding affinity to human D4 receptor expressed in CHO cells assessed as inhibition constant; format: cell-based
Chain of D(4) dopamine receptor (P21917 whole entry): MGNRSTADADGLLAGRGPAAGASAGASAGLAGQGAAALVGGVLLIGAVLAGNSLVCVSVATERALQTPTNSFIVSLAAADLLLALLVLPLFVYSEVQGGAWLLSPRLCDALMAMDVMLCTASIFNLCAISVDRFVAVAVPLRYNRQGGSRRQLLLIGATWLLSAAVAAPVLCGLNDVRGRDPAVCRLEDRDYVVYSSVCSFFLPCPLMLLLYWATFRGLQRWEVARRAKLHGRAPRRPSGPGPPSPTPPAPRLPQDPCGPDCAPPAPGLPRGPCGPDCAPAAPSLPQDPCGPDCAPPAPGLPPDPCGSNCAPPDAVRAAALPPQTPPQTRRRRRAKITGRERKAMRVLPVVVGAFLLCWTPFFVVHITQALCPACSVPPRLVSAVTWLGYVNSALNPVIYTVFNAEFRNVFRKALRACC

[10] = molecular target: 5-hydroxytryptamine receptor 2B (Homo sapiens, UniProt P41595); experiment: Binding affinity to human 5-HT2B receptor expressed in CHO cells assessed as inhibition constant; format: cell-based
Chain of 5-hydroxytryptamine receptor 2B (P41595 whole entry): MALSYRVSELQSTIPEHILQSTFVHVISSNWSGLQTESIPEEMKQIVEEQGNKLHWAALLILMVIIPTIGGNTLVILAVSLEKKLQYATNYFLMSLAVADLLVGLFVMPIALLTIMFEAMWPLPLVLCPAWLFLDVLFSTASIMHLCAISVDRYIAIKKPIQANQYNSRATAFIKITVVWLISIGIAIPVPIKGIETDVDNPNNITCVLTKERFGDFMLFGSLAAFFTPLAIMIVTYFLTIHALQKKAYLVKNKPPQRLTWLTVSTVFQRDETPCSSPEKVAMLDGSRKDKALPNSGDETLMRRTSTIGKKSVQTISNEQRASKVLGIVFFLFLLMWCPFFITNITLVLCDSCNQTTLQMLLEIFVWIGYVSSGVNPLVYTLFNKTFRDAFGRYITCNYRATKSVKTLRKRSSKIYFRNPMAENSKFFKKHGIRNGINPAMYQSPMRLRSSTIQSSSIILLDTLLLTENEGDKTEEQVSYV

[11] = molecular target: T1, 5-hydroxytryptamine receptor 1A; experiment: Binding affinity to human 5-HT1A receptor expressed in CHO cells assessed as inhibition constant; format: cell-based
[12] = molecular target: 5-hydroxytryptamine receptor 1D (Homo sapiens, UniProt P28221); experiment: Binding affinity to human 5-HT1D receptor expressed in CHO cells assessed as inhibition constant; format: cell-based
Chain of 5-hydroxytryptamine receptor 1D (P28221 whole entry): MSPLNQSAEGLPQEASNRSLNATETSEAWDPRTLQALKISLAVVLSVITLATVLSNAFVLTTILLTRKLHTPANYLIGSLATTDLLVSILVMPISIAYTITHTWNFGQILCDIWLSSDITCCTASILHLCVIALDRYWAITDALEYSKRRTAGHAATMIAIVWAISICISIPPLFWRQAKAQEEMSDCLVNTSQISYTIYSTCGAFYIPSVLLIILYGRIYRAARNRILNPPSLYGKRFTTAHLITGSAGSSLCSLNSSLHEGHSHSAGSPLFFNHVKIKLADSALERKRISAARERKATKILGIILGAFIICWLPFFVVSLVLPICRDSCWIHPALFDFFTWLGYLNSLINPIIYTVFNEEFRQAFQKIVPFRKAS

[13] = Drug metabolism in monkey plasma assessed as unchanged compound at 120 mins postinjection relative to control; format: ADME, organism-based, Macaca mulatta; settings: rhesus monkey, read-out: Stability
[14] = Drug uptake ratio in cynomolgus monkey occipital cortex to cerebellum at 30 to 40 mins postinjection; format: ADME, organism-based, Macaca fascicularis; settings: in vivo, time 30-40 min
[15] = Drug uptake ratio in cynomolgus monkey globus pallidus to cerebellum at 30 to 40 mins postinjection; format: ADME, organism-based, Macaca fascicularis; settings: in vivo, time 30-40 min
[16] = molecular target: T1, 5-hydroxytryptamine receptor 1A; experiment: Binding affinity to 5-HT1A receptor (unknown origin) assessed as inhibition constant by scintillation spectroscopic analysis
[17] = Ratio of drug uptake in human cortex to cerebellum assessed as increase in uptake relative to control; format: ADME, tissue-based
[18] = molecular target: Sodium-dependent serotonin transporter (Rattus norvegicus, UniProt P31652); experiment: Binding affinity to rat brain homogenate SERT receptor assessed as dissociation constant; format: tissue-based
Chain of Sodium-dependent serotonin transporter (P31652 whole entry): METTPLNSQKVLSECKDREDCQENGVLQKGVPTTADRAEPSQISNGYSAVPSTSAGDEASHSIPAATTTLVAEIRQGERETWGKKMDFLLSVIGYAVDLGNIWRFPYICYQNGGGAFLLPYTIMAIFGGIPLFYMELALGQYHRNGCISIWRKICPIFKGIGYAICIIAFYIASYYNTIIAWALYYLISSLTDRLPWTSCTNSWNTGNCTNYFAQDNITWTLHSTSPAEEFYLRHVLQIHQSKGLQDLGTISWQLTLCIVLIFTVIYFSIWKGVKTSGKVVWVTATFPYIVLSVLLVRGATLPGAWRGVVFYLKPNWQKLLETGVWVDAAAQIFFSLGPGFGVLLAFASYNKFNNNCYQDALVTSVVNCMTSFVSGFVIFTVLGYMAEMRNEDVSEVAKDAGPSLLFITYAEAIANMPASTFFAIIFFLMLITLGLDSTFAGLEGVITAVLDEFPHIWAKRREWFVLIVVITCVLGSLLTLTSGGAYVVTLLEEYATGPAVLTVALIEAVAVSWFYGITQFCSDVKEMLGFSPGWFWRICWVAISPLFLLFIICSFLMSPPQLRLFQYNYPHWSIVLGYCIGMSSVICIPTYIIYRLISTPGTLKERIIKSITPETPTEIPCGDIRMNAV

[19] = molecular target: T5, 5-hydroxytryptamine receptor 1A (Rattus norvegicus, UniProt P19327); experiment: Binding affinity to rat brain homogenate 5-HT1A receptor assessed as dissociation constant; format: tissue-based
T5 sequence (P19327 whole entry): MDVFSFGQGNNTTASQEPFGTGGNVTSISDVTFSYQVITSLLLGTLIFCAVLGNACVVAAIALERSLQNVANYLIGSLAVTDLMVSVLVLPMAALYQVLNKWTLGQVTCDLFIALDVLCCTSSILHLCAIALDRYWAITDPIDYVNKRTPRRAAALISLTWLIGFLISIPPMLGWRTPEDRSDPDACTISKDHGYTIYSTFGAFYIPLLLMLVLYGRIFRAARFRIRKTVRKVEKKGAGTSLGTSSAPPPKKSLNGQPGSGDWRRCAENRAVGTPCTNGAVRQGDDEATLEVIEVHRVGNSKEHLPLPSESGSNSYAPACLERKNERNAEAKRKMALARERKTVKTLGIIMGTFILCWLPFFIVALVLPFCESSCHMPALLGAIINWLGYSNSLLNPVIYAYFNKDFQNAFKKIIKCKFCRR

D(2) dopamine receptor [20] = molecular target: T2, D(2) dopamine receptor; experiment: Binding affinity to rat brain homogenate D2 receptor assessed as dissociation constant; format: tissue-based
[21] = molecular target: T3, Alpha-1A adrenergic receptor; experiment: Displacement of [3H]-WB4101 from rat forebrain homogenate alpha 1 adrenergic receptor; format: tissue-based
D(2) dopamine receptor [22] = molecular target: T2, D(2) dopamine receptor; experiment: Displacement of [3H]-haloperidol from rat striatal homogenate D2 receptor; format: tissue-based, Striatum
[23] = molecular target: 5-hydroxytryptamine receptor 2A (Rattus norvegicus, UniProt P14842); experiment: Displacement of [3H]-spiperone from rat frontal cortex homogenate 5-HT2A receptor; format: tissue-based
Chain of 5-hydroxytryptamine receptor 2A (P14842 whole entry): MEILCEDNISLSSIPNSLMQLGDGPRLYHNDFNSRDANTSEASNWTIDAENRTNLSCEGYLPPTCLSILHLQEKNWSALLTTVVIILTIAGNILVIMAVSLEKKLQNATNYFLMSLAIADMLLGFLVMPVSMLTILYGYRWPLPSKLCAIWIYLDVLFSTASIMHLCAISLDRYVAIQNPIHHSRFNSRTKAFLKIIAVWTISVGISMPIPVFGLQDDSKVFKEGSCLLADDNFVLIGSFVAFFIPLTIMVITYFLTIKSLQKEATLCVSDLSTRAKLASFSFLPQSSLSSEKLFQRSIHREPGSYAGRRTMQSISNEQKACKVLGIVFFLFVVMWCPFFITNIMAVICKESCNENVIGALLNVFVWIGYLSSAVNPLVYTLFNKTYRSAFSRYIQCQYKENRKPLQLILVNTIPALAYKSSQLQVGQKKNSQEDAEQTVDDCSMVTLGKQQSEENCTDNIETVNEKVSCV

[24] = Ratio of drug uptake in macaque brain frontal cortex to cerebellum at 3680 to 4035 Ci/mmol, iv by PET imaging upto 100 mins relative to control; format: ADME, organism-based; settings: macaca, in vivo, 1.667 h, dose 3680-4035 Ci/mmol
[25] = Ratio of drug uptake in macaque brain striatopallidal complex to cerebellum at 3680 to 4035 Ci/mmol, iv by PET imaging upto 100 mins relative to control; format: ADME, organism-based; settings: macaca, in vivo, 1.667 h, dose 3680-4035 Ci/mmol
[26] = molecular target: T6, 5-hydroxytryptamine receptor 1B (Cavia porcellus, UniProt O08892); experiment: Binding affinity to guinea pig 5-HT1B receptor assessed as dissociation constant by autoradiographic analysis
T6 sequence (O08892 whole entry): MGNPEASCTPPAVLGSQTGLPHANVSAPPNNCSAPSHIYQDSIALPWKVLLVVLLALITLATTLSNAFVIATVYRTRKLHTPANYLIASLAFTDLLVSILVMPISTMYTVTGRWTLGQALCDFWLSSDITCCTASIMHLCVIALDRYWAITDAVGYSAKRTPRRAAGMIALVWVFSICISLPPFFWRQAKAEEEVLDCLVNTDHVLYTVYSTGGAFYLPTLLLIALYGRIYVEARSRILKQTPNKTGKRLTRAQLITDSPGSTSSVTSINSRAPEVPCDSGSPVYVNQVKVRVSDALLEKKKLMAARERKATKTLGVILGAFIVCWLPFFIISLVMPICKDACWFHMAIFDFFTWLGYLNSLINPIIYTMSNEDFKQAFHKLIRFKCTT

[27] = Drug uptake in macaque brain at 3680 to 4035 Ci/mmol, iv measured as percentage of injected dose by PET imaging at 7.5 mins relative to control; format: ADME, organism-based; settings: macaca, in vivo, 0.125 h, dose 3680-4035 Ci/mmol
[28] = Ratio of drug uptake in macaque brain thalamus to cerebellum at 3680 to 4035 Ci/mmol, iv by PET imaging upto 100 mins relative to control; format: ADME, organism-based; settings: macaca, in vivo, 1.667 h, dose 3680-4035 Ci/mmol
[29] = molecular target: T6, 5-hydroxytryptamine receptor 1B; experiment: Binding affinity to guinea pig 5-HT1B receptor assessed as inhibition constant by autoradiographic analysis
[30] = Ratio of drug uptake in macaque brain occipital cortex to cerebellum at 3680 to 4035 Ci/mmol, iv by PET imaging upto 100 mins relative to control; format: ADME, organism-based; settings: macaca, in vivo, 1.667 h, dose 3680-4035 Ci/mmol

For `O=C(c1ccc([18F])cc1)C1CCN(CCn2c(=S)[nH]c3ccccc3c2=O)CC1`, which Ratio [1] is on record?
Its Ratio is 11.

For `Cc1cnc(CNCC2(F)CCN(C(=O)c3ccc([18F])c(Cl)c3)CC2)nc1`, which Ratio [2] is on record?
The Ratio was 1.6.

What about the Ki [3] of the same molecule?
The Ki was 2.24 nM.

And the Ratio [4]?
Its Ratio is 1.5.

For `O=C(NCCN1CCN(c2cccc3c2OCCO3)CC1)c1ccc([18F])cc1`, which Ratio [5] is on record?
The Ratio was 1.7.

What about the Ratio [6] of the same molecule?
The Ratio was 1.7.

What does the source list for `CCN(CC)C(=O)[C@@H]1C=C2c3cccc4c3c(c(Br)n4C)CC2N(C)C1` (stereo partly specified)?
Ki (D(2) dopamine receptor [7]): 3.9 nM; Ki [8]: 34 nM

For `O=C(NCCN1CCN(c2cccc3c2OCCO3)CC1)c1ccc(F)cc1`, which Ki [9] is on record?
The Ki was 40 nM.

And the Ki (D(4) dopamine receptor)?
The Ki was 4 nM.

What about the Ki [10] of the same molecule?
Its Ki is 46 nM.

What about the Ki [11] of the same molecule?
The Ki was 0.1 nM.

What about the Ki [12] of the same molecule?
Its Ki is 25 nM.

For `[11CH3]N1CCN(c2cc(F)cc3c(=O)cc(C(=O)Nc4ccc(N5CCOCC5)c(F)c4)oc23)CC1`, which remaining at 2 h [13] is on record?
The remaining at 2 h was greater than 40%.

What about the Ratio [14] of the same molecule?
Its Ratio is 2.2.

What about the Ratio [15] of the same molecule?
Its Ratio is 2.5.

For `CNc1nc(CNCC2(F)CCN(C(=O)c3ccc(F)c(Cl)c3)CC2)ccc1C`, which Ki [16] is on record?
Its Ki is 0.04 nM.

For `[2H]C([2H])(Cn1c(=S)[nH]c2ccccc2c1=O)N1CCC(C(=O)c2ccc([18F])cc2)CC1`, which Drug uptake [17] is on record?
The Drug uptake was 26%.

With `COc1ccccc1N1CCN(CCn2cc(COCC(COc3ccc([Si]([18F])(C(C)(C)C)C(C)(C)C)cc3)OCc3cn(CCN4CCN(c5ccccc5OC)CC4)nn3)nn2)CC1` (stereo unspecified) as the molecule, how does the Ki [18] read?
Its Ki is 9.8 nM.

What about the Ki [19] of the same molecule?
Its Ki is 0.099 nM.

What about the Ki (D(2) dopamine receptor [20]) of the same molecule?
The Ki was 2.2 nM.

For `Cc1nc2n(c(=O)c1CCN1CCC(C(=O)c3ccc(F)cc3)CC1)CCS2` [SETOPERONE], which Ki [21] is on record?
Its Ki is 12 nM.

And the Ki (D(2) dopamine receptor [22])?
The Ki was 24 nM.

And the Ki [23]?
The Ki was 2.3 nM.

Which Ratio [24] does the source give for `Cc1ccc(N2CCN([11CH3])CC2)c2oc(C(=O)Nc3ccc(N4CCOCC4)cc3)cc(=O)c12` here?
The Ratio was 2.6.

And the Ratio [25]?
Its Ratio is 4.1.

What about the Kd [26] of the same molecule?
The Kd was 0.4 nM.

What about the Drug uptake [27] of the same molecule?
The Drug uptake was 3%.

And the Ratio [28]?
Its Ratio is 2.6.

What about the Ki [29] of the same molecule?
Its Ki is 0.01 nM.

And the Ratio [30]?
The Ratio was 4.2.
